Key:
Assay type in all cases: in vivo, mouse
utrophin = experiment: Western blot quantification of utrophin in muscles of Dup2 mice; conditions: adult Dup2 mice, tail vein, 3 months post-injection
Experimental: (§1) 150 μl of this lysis buffer was used for 100 mg of tissue. This solution was then put on ice for 30min, and then tissue was lysed using a metal bead (1 min at 30 Hz, TissueLyser II, Qiagen). These last two steps were repeated, and then the lysate was centrifuged at 14000 g for 20min at 4° C. The supernatant was mixed with a classical 4× Laemmli buffer and boiled for 5 min at 100° C. 50-150 μg of protein were run on a precast 3-8% Tris-Acetate gel (NuPage, Life Science) for 16 h at 80V (4° C.). Using a nitrocellulose membrane, gels were transferred overnight at 300 mA using a cooling device. […] All antibodies were diluted in half Odyssey blocking buffer (Licor®) and half Tris buffered saline with Tween (TBST) (Sigma-Aldrich). Following secondary incubation, 5×5 min with 0.1% Tween washes were performed followed by a ddH2O rincing. Both IRDye@ signals were simultaneously scanned using the Odyssey® CLx (LI-COR). The signals for both dystrophin, utrophin and α-actinin were quantified using ImageJ.

DMD exon 2 = experiment: RT-PCR quantification of DMD exon 2 skipping (Dup2, WT, Del2 transcripts) in muscles of Dup2 mice; conditions: adult Dup2 mice, tail vein, 3 months post-injection
Experimental: Total RNA was isolated from tissue samples and analyzed by reverse transcription (RT) followed by PCR. […] For each sample, 1 μg of total RNA was used to generate cDNA by RT-PCR using random hexamer primers according to the manufacturer's protocol (Thermo Scientific, Ferk1672) and then used for a single PCR of 35 cycles using 1 μg of RNA and a mixture of random hexamer and oligo(dT) for each RT reaction. mRNA was then amplified via primers specific to the DMD 5′UTR and the exon 3-4 junction as follows.
Following electrophoresis, PCR products were electrophoresed on a 2% agarose gel and imaged using a Gel Logic 200 Imaging System (Kodak). Quantification of Dup2, WT or Del2 transcript was performed using ImageJ (an open source platform for scientific image analysis), and each band plotted in Prism (GraphPad) as a percentage of the overall dystrophin transcript. The images were then used to quantify the relative amount of each transcript using ImageJ software 14. Using the “Gel” function of ImageJ, a box was drawn in each lane around the area where the three possible transcripts would be. A histogram of each sample was then generated and the area under the curve was measured. The sum of the area under the three peaks were added together and then individual peak area was measured as a percentage of the total.

[1] = qPCR quantification of viral vector genomes (biodistribution) in muscles of Dup2 mice; conditions: adult Dup2 mice, tail vein, 3 months post-injection
Experimental: Physical titer determination was determined based on degradation of non-encapsidated DNA following digestion of viral capsids. Released encapsidated DNA was quantified by qPCR to determine the DNAase Resistant Particle (DRP) titer. The DRP titer (also referred to as vector genomes [vg]) were determined for scAAV9.U7.ACCA or scAAV1.U7-ACCA products using real-time quantitative PCR (qPCR) using dilutions of a linearized plasmid standard containing U7 amplicon as assay standards. The DRP quantitative PCR (qPCR) assay involves serial dilution of the test sample (10^−2 to 10^−5) and sequential digestion with DNase I and Proteinase K, followed by qPCR analysis. DNA detection was accomplished using sequence specific primers targeting a primer/probe combination specific to the construct sequence (probe: 5′-[…]-3′ (SEQ ID NO: 4); Fw primer: 5′-agctcctatgttgttaTCTAGAG-3′ (SEQ ID NO: 5); Rv primer: 5′-[…]-3′ (SEQ ID NO: 6)) and amplified using a fluorescently tagged probe hybridizing to the U7 amplicon. Titration of the encapsidated viral genome were performed using quantitative PCR-based titration method runned on a Prism 7500 Taqman detector system (PE Applied Biosystems).
All tissues and organs for qPCR/Biodistribution studies were placed into sterile tubes, snap-frozen in liquid nitrogen, and kept at <−70° C. qPCR analyses were performed on samples at 1, 3 and 6 months post-injection. 300 ul DNA lysis buffer (0.05M Tris-HCl pH 8, 0.1M NaCl, 0.1M EDTA, 1% SDS) plus 7.5 ul proteinase K were added to sections and incubated at 55° C. overnight. DNA was quantified and 25 ng of DNA was run in triplicate. The same qPCR primers and probe used for vector titration were used to perform the tissue biodistribution qPCR studies. Data were represented as normalized copy number per 1 ug DNA.

Dup2 mice [2] = experiment: Quantification of centronucleation of myofibers (H&E) in Dup2 mice; conditions: adult Dup2 mice, tail vein, 3 months post-injection
Experimental: (§2) To induce muscle injury for Evans blue dye (EBD) analysis, a treadmill exercise program was used. In the first week, four month old mice were trained three times on a treadmill at 10° inclination, running as follows: 0 m/min for 2 min, 5 m/min for 5 min, 10 m/min for 15 min, and 12 m/min for 5-10 min. In the following three weeks (3×/week), mice ran on the treadmill at 2 m/min for 30 min. Before mice euthanasia, the treadmill was used at the same inclination at 5 m/min for 5 min. Following this initial warming up, the speed was increased to +1 m/min until exhaustion. EBD solution (10 mg/ml in PBS) was filtered and injected intraperitoneally (IP) into mice after the last treadmill exercise, and mice were sacrificed 24 hrs later. For analysis, muscle sections were stained with α-laminin to distinguish myofibers, and the percentage of positive Evans blue fibers (labeled in red) were then quantified using ImageJ software. For quantification of centronucleation, H&E staining was performed using standard technique, and fiber counting was performed manually using ImageJ. For both analyses, three sections were processed and counted for each animal.
(§3) H&E staining was performed using standard protocol. Quantification of both centronucleation and Evans blue dye (EBD) was performed manually using ImageJ. Three sections were processed and counted for each animal.

dystrophin = experiment: Western blot / immunoblot quantification of dystrophin in muscles of Dup2 mice; conditions: for Western blot quantification: % of dystrophin: percent of WT, adult Dup2 mice, tail vein, 3 months post-injection
Experimental: as §1
With some experiments, 25×40 μm thick sections of cryopreserved tissues were used for western blotting to quantify amount of restored dystrophin protein. Extracted protein was run on 3-8% Tris-Acetate protein gels and visualized using specific primary antibodies against dystrophin or α-actinin the corresponding Licor secondary antibodies IRDye 680 or IRDye 800 (as set out above). Blots were imaged using the Licor Odyssey CLx and quantified using ImageJ.
Steel beads were added to the tissue, which was homogenized using the Tissuelyser II (Qiagen) for 2 min at a rate of 30/sec. Lysates were then incubated on ice and spun down; the supernatant was removed and stored at −80═ C. until immunoblotting, and the cell debris was discarded. For immunoblotting, 50 μg C57BL/6 muscle tissue protein or 150 μg Dup2 muscle tissue protein was loaded with a loading dye (1× laemmli) on a 3-8% Tris Acetate gel (Life Technologies, EA0378BOX). […] The membrane was scanned on the Odyssey CLx and imaged using Image Studio 14. Single color channel images were using Image Studio and then imported into ImageJ for quantification. For each channel, a box was drawn in each lane around the protein band using the “Gel” function in ImageJ. A histogram of each sample was then generated and the area under the curve was measured. Dystrophin was normalized to α-actinin by dividing the area of the dystrophin band by the area of the α-actinin band for each sample. If the same sample was run on multiple immunoblots, the median was taken to represent that particular sample. The C57BL/6 measurement was determined by taking the mean of all wild type samples. Both treated Dup2 and control Dup2 measurements were reported as a percentage of the wild type (n≥3).

Dup2 mice [3] = experiment: Evans blue dye (EBD) positive fibers after exhaustive treadmill exercise in Dup2 mice; conditions: adult Dup2 mice, tail vein
Experimental: as §2, §3

[4] = tested on: tibialis anterior (TA) muscle; experiment: Force generation and protection from eccentric contractions, tibialis anterior of Dup2 mice; parameters: Eccentric contraction: % force decrease: scale not given here; conditions: tail vein adult Dup2 mice
Experimental: Physiologic studies were conducted on TA muscles from 12 week old mice that had been treated with an intramuscular injection of 3.1×10^11 vg at 8 weeks (N≥5 limbs). For systemic studies, the mice were 20-21 weeks old following 12 weeks of treatment (N≥12 limbs). The force study procedure was conducted using a modified version of Hakim's procedure (Hakim et al., J Appl. Physiol. (1985) 2011; 110:1656-1663; Wein et al., Nat. Med. 2014; 20:992-1000). Initial anesthetization of mice was conducted by giving an intraperitoneal injection of a cocktail containing five times their weight (i.e., the weight of the mouse) of 25 mg/mL ketamine and twice their weight of 2.5 mg/ml xylazine. […]
The resting force was set to between 3-4 g for a 10 minute equilibrium period. The TA muscle was then stimulated at the optimal length (Lo, mm) and active tetanic muscle force was recorded to give the absolute force measurement using the Lab View-based DMC program (Aurora Scientific). […] The cross-sectional area measured as mass (g)/(muscle density×ratio of fiber length×Lo) where muscle density is 1.06 mg/mm^3 and the ratio of fiber length in the TA is 0.6 (Burkholder et al., J Morphol 1994; 221:177-190). […] Statistical significance was assessed using a Kruskal-Wallace test assuming nonparametric data in the GraphPad Prism (version 6.03 for Windows, GraphPad Software, San Diego California USA). […]

Compound: C[C@H]1C[C@@H]2[C@H]([C@@H](O)C[C@@]3(C)[C@H]2CC[C@]3(O)C(=O)COC(=O)CCC(=O)[O-])[C@@]2(C)C=CC(=O)C=C12.[Na+] [PDN, 6α-methylprednisolone 21-hemisuccinate sodium salt]
- Western blot quantification: ratio of utrophin/a-actinin (utrophin; DIA): 0.6
- Western blot quantification: ratio of utrophin/a-actinin (utrophin; GAS): 0.2
- Western blot quantification: ratio of utrophin/a-actinin (utrophin; HEART): 0.5
- Western blot quantification: ratio of utrophin/a-actinin (utrophin; TA): 0.3
- Western blot quantification: ratio of utrophin/a-actinin (utrophin; TRI): 0.4
- RT-PCR quantification: % of Del2 transcript (DMD exon 2; DIA): 0%
- RT-PCR quantification: % of Dup2 transcript (DMD exon 2; DIA): 97.7%
- RT-PCR quantification: % of WT transcript (DMD exon 2; DIA): 2.3%
- RT-PCR quantification: % of Del2 transcript (DMD exon 2; GAS): 4.3%
- RT-PCR quantification: % of Dup2 transcript (DMD exon 2; GAS): 86%
- RT-PCR quantification: % of WT transcript (DMD exon 2; GAS): 9.6%
- RT-PCR quantification: % of Del2 transcript (DMD exon 2; HEART): 0%
- RT-PCR quantification: % of Dup2 transcript (DMD exon 2; HEART): 98.3%
- RT-PCR quantification: % of WT transcript (DMD exon 2; HEART): 1.6%
- RT-PCR quantification: % of Del2 transcript (DMD exon 2; TA): 0%
- RT-PCR quantification: % of Dup2 transcript (DMD exon 2; TA): 100%
- RT-PCR quantification: % of WT transcript (DMD exon 2; TA): 0%
- RT-PCR quantification: % of Del2 transcript (DMD exon 2; TRI): 0%
- RT-PCR quantification: % of Dup2 transcript (DMD exon 2; TRI): 98.3%
- RT-PCR quantification: % of WT transcript (DMD exon 2; TRI): 1.7%
- viral vector genome quantification ([1]; DIA): 17 vector/ug DNA
- viral vector genome quantification ([1]; GAS): 15 vector/ug DNA
- viral vector genome quantification ([1]; HEART): 188 vector/ug DNA
- viral vector genome quantification ([1]; TA): 39 vector/ug DNA
- viral vector genome quantification ([1]; TRI): 50 vector/ug DNA
- % of centronucleation (Dup2 mice [2]; DIA): 68.55%
- % of centronucleation (Dup2 mice [2]; TA): 71.12%
- Western blot quantification: % of dystrophin (dystrophin; DIA): 9.2%
- dystrophin expression (dystrophin; Dup2 mice, PDN alone): does not induce dystrophin expression
- Western blot quantification: % of dystrophin (dystrophin; GAS): 2.1%
- Western blot quantification: % of dystrophin (dystrophin; HEART): 13.7%
- Western blot quantification: % of dystrophin (dystrophin; TA): 4.83%
- Western blot quantification: % of dystrophin (dystrophin; TRI): 4.8%
- % of EBD positive fibers (Dup2 mice [3]; DIA): 12.31%
- % of EBD positive fibers (Dup2 mice [3]; GAS): 3.04%
- % of EBD positive fibers (Dup2 mice [3]; TA): 8.14%
- % of EBD positive fibers (Dup2 mice [3]; TRI): 2.57%
- Absolute force: Force (mN) [4]: 1401 mN
- Eccentric contraction: % force decrease ([4]; repeated eccentric contractions): 0.52
